Results reported in patent publication US20260070929A1, “METHODS AND COMPOSITIONS FOR MODULATING KRAS(G12D)” (Ranok Therapeutics (Hangzhou) Co. LTD., priority 2022, published 2026).

What was measured:
KRAS(G12D)/SOS1 = molecular target: T1, KRAS(G12D)/SOS1 (Homo sapiens, UniProt P01116, G12D); experiment: KRAS(G12D)/SOS1 homogeneous time-resolved fluorescence (HTRF) assay; format: binding; conditions: absence of GTP; 4° C., 3 hr
T1 construct: purchased Cisbio 63ADK000CB17PEH
Description: Binding of test compounds to KRAS(G12D) target protein, which in turn blocks KRAS(G12D) interaction with the SOS1 protein, was measured in the absences of GTP by homogeneous time-resolved fluorescence using the KRAS-G12D/SOS1 Binding Assay Kit (Cisbio, 63ADK000CB17PEH), following the manufacturer's instructions, except as noted. 3-fold serial dilutions of each test compound were prepared ranging from 20 µM to 1.02 nM. The test compound was mixed and incubated with reaction components, incubated in a sealed plate at 4° C. for 3 hr and fluorescence was measured using a PerkinElmer Envision plate reader. The KRAS(G12D)-SOS1 IC50 values (the concentration of 50% of the maximal inhibition) were calculated using GraphPad Prism 7 software.

[1] = system: AGS gastric carcinoma cells [heterozygous G12D]; experiment: Cancer cell line proliferation (CellTiter-Glo), AGS; format: cell-based; conditions: Homo sapiens, 72 hr treatment, read-out: AGS CTG (EC50)
Description: (§1) The following cancer cell lines were employed: AGS gastric carcinoma [heterozygous G12D](ATCC, CRL-1739); A-427 lung carcinoma [heterozygous G12D](ATCC, HTB-53); ASPC1 pancreatic adenocarcinoma [homozygous G12D](ATCC, CRL-1682) and SW1990 pancreatic adenocarcinoma [homozygous G12D](ATCC CRL-2172). Cell lines were cultured essentially according to ATCC recommendations.
(§2) AGS, A-427, ASPC1, SW1990, and GP2D cells were plated in 96-well tissue culture plates at 4,000 cells/well and incubated at 37° C./5% CO2 for 72 hr in 100 μl of media. 3-fold serial dilutions of each test compound were prepared ranging from 20 μM to 1.02 nM. Each cell line was then treated with test compounds at various concentrations with a final concentration of 0.5% DMSO/well, and then incubated at 37° C./5% CO2 for 72 hr. 100 µl of CellTiter-Glo® Reagent (Promega Corporation, Madison, WI) was added to each well and processed according manufacturer's protocol. Results were analyzed and EC50 values were calculated in GraphPad 7 software.

[2] = system: A-427 lung carcinoma cells [heterozygous G12D]; experiment: Cancer cell line proliferation (CellTiter-Glo), A-427; format: cell-based; conditions: Homo sapiens, A-427 cells, 72 hr treatment, read-out: A427 CTG (EC50)
Description: as §1, §2

T1 sequence (P01116 1-188 isoform P01116-2 G12D): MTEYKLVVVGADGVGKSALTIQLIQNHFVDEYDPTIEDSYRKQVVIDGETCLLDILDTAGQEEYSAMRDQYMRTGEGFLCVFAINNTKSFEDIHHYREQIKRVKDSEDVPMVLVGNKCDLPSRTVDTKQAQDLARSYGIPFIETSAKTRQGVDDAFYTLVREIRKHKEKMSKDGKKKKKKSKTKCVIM

SMILES | IC50 (KRAS(G12D)/SOS1) | EC50 [1] | EC50 [2]
CC(C)c1cc(C(=O)N2Cc3ccc(CN4CCN(C[C@H]5CC[C@@H](COc6nc(N7CC8CCC(C7)N8)c7cnc(-c8cccc9cccc(F)c89)c(F)c7n6)N5C)CC4)cc3C2)c(O)cc1O [Compound 76] | 100 to 1000 nM | 100 to 1000 nM | 100 to 1000 nM
CC(C)c1cc(C(=O)N2Cc3ccc(CN4CCN([C@H]5C[C@@H](COc6nc(N7CC8CNC(C8)C7)c7cnc(-c8cc(O)cc9ccccc89)c(F)c7n6)N(C)C5)CC4)cc3C2)c(O)cc1O (stereo partly shown) [Compound 74] | > 1000 nM | 100 to 1000 nM | 100 to 1000 nM
C#Cc1cccc2cc(O)cc(-c3ncc4c(N5CC6CCC(C5)N6)nc(OC[C@@H]5C[C@H](CN6CCN(Cc7ccc(-n8c(C(=O)NCC(F)(F)F)nnc8-c8cc(CC)c(O)cc8O)cc7)CC6)CN5C)nc4c3F)c12 [Compound 116] | – | 100 to 1000 nM | > 1000 nM
CC(C)c1cc(C(=O)N2Cc3ccc(CN4CCC(C(=O)N5CCN([C@H]6C[C@@H](COc7nc(N8CC9CCC(C8)N9)c8cnc(-c9cccc%10cccc(F)c9%10)c(F)c8n7)N(C)C6)CC5)CC4)cc3C2)c(O)cc1O [Compound 92] | 100 to 1000 nM | 100 to 1000 nM | 100 to 1000 nM
CC(C)c1cc(-c2nnc(C(=O)NC(C)C(F)(F)F)n2-c2ccc(CN3CCN([C@H]4C[C@@H](COc5nc(N6CC7CCC(C6)N7)c6cnc(-c7ccccc7C(F)(F)F)c(F)c6n5)N(C)C4)CC3)cc2)c(O)cc1O (stereo partly shown) [Compound 110] | – | 100 to 1000 nM | 100 to 1000 nM
C#Cc1cccc2cccc(-c3ncc4c(N5CC6CCC(C5)N6)nc(OCCN5CCN(CCN(CC)C(=O)c6cc(C(C)C)c(O)cc6O)CC5)nc4c3F)c12 [Compound 75] | 100 to 1000 nM | > 1000 nM | > 1000 nM
CCNC(=O)c1nnc(-c2cc(C(C)C)c(O)cc2O)n1-c1ccc(CN2CCN([C@H]3C[C@@H](COc4nc(N5CC6CNC(C6)C5)c5cnc(-c6cc(O)cc7ccccc67)c(F)c5n4)N(C)C3)CC2)cc1 (stereo partly shown) [Compound 85] | > 1000 nM | 100 to 1000 nM | 100 to 1000 nM
CC(C)c1cc(-c2nnc(C(=O)NC(C)C(F)(F)F)n2-c2ccc(CN3CCN([C@H]4C[C@@H](COc5nc(N6CC7CCC(C6)N7)c6cnc(-c7cc(O)cc8ccccc78)c(F)c6n5)N(C)C4)CC3)cc2)c(O)cc1O (stereo partly shown) [Compound 100] | < 100 nM | < 100 nM | 100 to 1000 nM
CCNC(=O)c1nnc(-c2cc(C(C)C)c(O)cc2O)n1-c1ccc(CN2CCN(C[C@H]3CC[C@@H](COc4nc(N5CC6CCC(C5)N6)c5cnc(-c6cccc7cccc(C)c67)c(F)c5n4)N3C)CC2)cc1 [Compound 72] | 100 to 1000 nM | < 100 nM | < 100 nM
Cc1cccc(-c2ncc3c(N4CC5CCC(C4)N5)nc(OC[C@@H]4C[C@H](N5CCN(Cc6ccc(-n7c(C(=O)NC(C)C(F)(F)F)nnc7-c7cc(C(C)C)c(O)cc7O)cc6)CC5)CN4C)nc3c2F)c1C (stereo partly shown) [Compound 82] | > 1000 nM | 100 to 1000 nM | 100 to 1000 nM
CCc1cc(-c2nnc(C(=O)NCC(F)(F)F)n2-c2ccc(CN3CCN([C@H]4C[C@@H](COc5nc(N6CC7CCC(C6)N7)c6cnc(-c7cccc8cccc(OC)c78)c(F)c6n5)N(C)C4)CC3)cc2)c(O)cc1O [Compound 105] | > 1000 nM | 100 to 1000 nM | 100 to 1000 nM
CC(C)c1cc(C(=O)N2Cc3ccc(CN4CCC(C(=O)N5CCN([C@H]6C[C@@H](COc7nc(N8CC9CCC(C8)N9)c8cnc(-c9ccccc9C(F)(F)F)c(F)c8n7)N(C)C6)CC5)CC4)cc3C2)c(O)cc1O [Compound 91] | > 1000 nM | 100 to 1000 nM | 100 to 1000 nM
C#Cc1cccc2cc(O)cc(-c3ncc4c(N5CC6CCC(C5)N6)nc(OCC5(CN6CCC(C(=O)N7CCN(Cc8ccc(-n9c(C(=O)NCC(F)(F)F)nnc9-c9cc(C(C)C)c(O)cc9O)cc8)CC7)CC6)CC5)nc4c3F)c12 [Compound 119] | < 100 nM | < 100 nM | 100 to 1000 nM
C#Cc1cccc2cc(O)cc(-c3ncc4c(N5CC6CCC(C5)N6)nc(OC[C@@H]5C[C@H](N6CCN(Cc7ccc(-n8c(C(=O)NC(C)C(F)(F)F)nnc8-c8cc(C(C)C)c(O)cc8O)cc7)CC6)CN5C)nc4c3F)c12 (stereo partly shown) [Compound 98] | < 100 nM | 100 to 1000 nM | 100 to 1000 nM
C#Cc1cccc2cc(O)cc(-c3ncc4c(N5CC6CCC(C5)N6)nc(OC[C@@H]5C[C@H](N6CCN(Cc7ccc(-n8c(C(=O)NCC(F)(F)F)nnc8-c8cc(CC)c(O)cc8O)cc7)CC6)CN5C)nc4c3F)c12 [Compound 99] | < 100 nM | 100 to 1000 nM | 100 to 1000 nM
C#Cc1cccc2cc(O)cc(-c3ncc4c(N5CC6CCC(C5)N6)nc(OCC5(CN6CCC(C(=O)N7CCN(Cc8ccc9c(c8)CN(C(=O)c8cc(C(C)C)c(O)cc8O)C9)CC7)CC6)CC5)nc4c3F)c12 [Example 3, 4-{5-[(4-{1-[(1-{[(4-{3,8-diazabicyclo[3.2.1]octan-3-yl}-7-(8-ethynyl-3-hydroxynaphthalen-1-yl)-8-fluoropyrido[4,3-d]pyrimidin-2-yl)oxy]methyl}cyclopropyl)methyl]piperidine-4-carbonyl}piperazin-1-yl)methyl]-1,3-dihydroisoindole-2-carbonyl}-6-isopropylbenzene-1,3-diol] | < 100 nM | < 100 nM | 100 to 1000 nM
CCc1cc(-c2nnc(C(=O)NCC(F)(F)F)n2-c2ccc(CN3CCN(C[C@H]4CC[C@@H](COc5nc(N6CC7CCC(C6)N7)c6cnc(-c7cc(C)cc8ccccc78)c(F)c6n5)N4C)CC3)cc2)c(O)cc1O [Compound 73] | < 100 nM | 100 to 1000 nM | 100 to 1000 nM
C#Cc1cccc2cc(O)cc(-c3ncc4c(N5CC6CCC(C5)N6)nc(OC[C@@H]5C[C@H](N6CCN(Cc7ccc8c(c7)CN(C(=O)c7cc(C(C)C)c(O)cc7O)C8)CC6)CN5C)nc4c3F)c12 [Compound 86] | < 100 nM | 100 to 1000 nM | 100 to 1000 nM
C#Cc1cccc2cc(O)cc(-c3ncc4c(N5CC6CCC(C5)N6)nc(OC[C@@H]5C[C@H](CN6CCN(Cc7ccc8c(c7)CN(C(=O)c7cc(C(C)C)c(O)cc7O)C8)CC6)CN5C)nc4c3F)c12 [Compound 113] | – | 100 to 1000 nM | 100 to 1000 nM
Cc1c(F)cccc1-c1ncc2c(N3CC4CCC(C3)N4)nc(OC[C@@H]3C[C@H](N4CCN(C(=O)C5CCN(Cc6ccc7c(c6)CN(C(=O)c6cc(C(C)C)c(O)cc6O)C7)CC5)CC4)CN3C)nc2c1F [Compound 84] | – | 100 to 1000 nM | 100 to 1000 nM
CC(C)c1cc(C(=O)N2Cc3ccc(CN4CCC(C(=O)N5CCN(C[C@H]6C[C@@H](COc7nc(N8CC9CCC(C8)N9)c8cnc(-c9cc(O)cc%10ccccc9%10)c(F)c8n7)N(C)C6)CC5)CC4)cc3C2)c(O)cc1O [Compound 112] | – | > 1000 nM | > 1000 nM
C#Cc1cccc2cc(O)cc(-c3ncc4c(N5CC6CCC(C5)N6)nc(OC[C@@H]5C[C@H](CN6CCN(Cc7ccc(-n8c(C(=O)NC(C)C(F)(F)F)nnc8-c8cc(C(C)C)c(O)cc8O)cc7)CC6)CN5C)nc4c3F)c12 (stereo partly shown) [Compound 115] | – | 100 to 1000 nM | 100 to 1000 nM
C#Cc1cccc2cc(O)cc(-c3ncc4c(N5CC6CCC(C5)N6)nc(OC[C@@H]5C[C@H](CN6CCN(Cc7ccc(-n8c(C(=O)NCC)nnc8-c8cc(C(C)C)c(O)cc8O)cc7)CC6)CN5C)nc4c3F)c12 [Compound 114] | – | 100 to 1000 nM | 100 to 1000 nM
CC(C)c1cc(C(=O)N2Cc3ccc(CN4CCN(C[C@H]5C[C@@H](COc6nc(N7CC8CCC(C7)N8)c7cnc(-c8cc(O)cc9ccccc89)c(F)c7n6)N(C)C5)CC4)cc3C2)c(O)cc1O [Compound 90] | – | 100 to 1000 nM | 100 to 1000 nM
